# Where two headings read alike, the source gives them in different places.
# Tests used:
# SOS1 and KRAS G12C = SOS1 and KRAS G12C (Homo sapiens (Human), UniProt Q07889); assay: KRAS::SOS1 AlphaScreen binding assay (KRAS G12C); details: average of at least two measurements
# Experimental: (§1) Low IC50 values are indicative of high potency of the SOS1 inhibitor compound in this assay setting:
# (§2) • GST-tagged SOS1 (564_1049_GST_TEV_ECO) produced in-house • 6xHis-Tev-K-RasG12D/G12C(1-169)Avi produced in-house • GDP (Sigma Cat No G7127) • AlphaLISA Glutathione Acceptor Beads (PerkinElmer, Cat No AL109) • AlphaScreen Streptavidin Donor Beads (PerkinElmer Cat No 6760002) • Assay plates: Proxiplate-384 PLUS, white (PerkinElmer, Cat No 6008289)
# (§3) [formula] • KRAS::SOS1 GDP mix: • 7.5 nM (final assay concentration) K-RasG12C, 10 nM (final assay concentration) K-RasG12D, 10 μM (final assay concentration) GDP and 5 nM (final assay concentration) GST-SOS1 are mixed in assay buffer prior to use and kept at rt. Bead mix: • AlphaLISA Glutathione Acceptor Beads and AlphaScreen Streptavidin Donor Beads are mixed in the dark in assay buffer at a concentration of 10 μg/mL (final assay concentration) each prior to use and kept at rt.
# (§4) Compounds are diluted to a final start concentration of 100 μM and are tested in duplicate. Assay-ready plates (ARPs) are generated using an Access Labcyte Workstation with a Labcyte Echo 550 or 555 acoustic dispenser. For compound a start concentration of 100 μM, 150 nL of compound solution is transferred per well in 11 concentrations in duplicate with serial 1:5 dilutions.
# (§5) The assay is run using a fully automated robotic system in a darkened room below 100 Lux. 10 μL of KRAS::SOS1 GDP mix is added into columns 1-24 to the 150 nL of compound solution (final dilution in the assay 1:100, final DMSO concentration 1%).
# (§6) After a 30 minute incubation time, 5 μL of bead mix is added into columns 1-23. Plates are kept at rt in a darkened incubator. After a further 60 minutes incubation, the signal is measured using a PerkinElmer Envision HTS Multilabel Reader using the AlphaScreen specifications from PerkinElmer. Each plate contains the following controls:
# (§7) diluted DMSO+KRAS::SOS1 GDP mix+bead mix
# (§8) diluted DMSO+KRAS::SOS1 GDP mix
# (§9) Result calculation: IC50 values are calculated and analyzed using a 4 parametric logistic model.
# (§10) Table 1: Inhibition values for KRAS G12C as well as for KRAS G12D. […] The value indicates an average value of at least two measurements.
# SOS1 and KRAS G12D = SOS1 and KRAS G12D (Homo sapiens (Human), UniProt Q07889); assay: KRAS::SOS1 AlphaScreen binding assay (KRAS G12D); details: average of at least two measurements
# Chain of SOS1 and KRAS G12D (Q07889 564-1049, stated change not applied): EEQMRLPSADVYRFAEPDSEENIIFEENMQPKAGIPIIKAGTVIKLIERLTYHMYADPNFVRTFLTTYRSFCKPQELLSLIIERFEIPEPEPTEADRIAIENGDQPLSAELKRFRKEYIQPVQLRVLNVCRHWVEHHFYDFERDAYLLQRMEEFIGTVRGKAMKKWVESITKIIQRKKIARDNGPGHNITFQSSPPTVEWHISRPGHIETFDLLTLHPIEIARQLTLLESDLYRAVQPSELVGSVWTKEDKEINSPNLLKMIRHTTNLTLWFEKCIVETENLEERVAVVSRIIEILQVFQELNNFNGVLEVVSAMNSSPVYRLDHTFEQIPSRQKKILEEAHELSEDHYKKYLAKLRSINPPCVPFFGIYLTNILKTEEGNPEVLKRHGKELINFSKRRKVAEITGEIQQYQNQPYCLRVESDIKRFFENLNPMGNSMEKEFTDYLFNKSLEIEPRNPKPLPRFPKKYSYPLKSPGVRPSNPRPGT
# Experimental: as §1, §2, §3, §4, §5, §6, §7, §8, §9, §10
# [1] = tested on: ERK phosphorylation in NCI-H358 SOS2 KO cells (KRAS G12C); assay: Erk phosphorylation assay; format: cell-based, human; details: EGF stimulated, average of at least two measurements, read-out: pERK IC50
# Experimental: Low IC50 values are indicative of high potency of the SOS1 inhibitor compounds in this assay setting.
# ERK phosphorylation assays are performed using the following human cell line: • NCI-H358 SOS2 KO (Hofmann, Gmachl, Ramharter et al, Cancer Discov. 2021, 11(1):142-15): human lung cancer with a KRAS G12C mutation;
# NCI-H358 SOS2 KO are seeded at 50000 cells per well in 60 μL of DMEM with 2% FBS, in Greiner TC 384 plates. The cells are incubated overnight in an incubator at 37° C. and 5% CO2 in a humidified atmosphere. 60 nL compound solution (10 mM DMSO stock solution) is then added using a Beckman Coulter Labcyte Echo 550 device. After 50 min incubation in the aforementioned incubator, 5 nl EGF are added to each well for a final concentration of approx. 8 ng/mL using a Beckman Coulter Labcyte Echo 550 device and cells are incubated for another 10-15 minutes before lysis. The medium is removed, and the cells are lysed by addition of 20 μL of 1.6-fold lysis buffer from the AlphaLISA SureFire Ultra pERK1/2 (Thr202/Tyr204) Assay Kit with added protease inhibitors. After 20 minutes of incubation at rt with shaking, 6 μL of each lysate sample is transferred to a 384-well Proxiplate and analyzed for pERK (Thr202/Tyr204) with the AlphaLISA SureFire Ultra pERK1/2 (Thr202/Tyr204) Assay Kit. 3 μL Acceptor Mix and 3 μL Donor Mix are added under subdued light and incubated for 2 h at rt in the dark, before the signal is measured on a Perkin Elmer Envision plate reader using 384 AlphaScreen settings for Proxiplates. Data are fitted by iterative calculation with variable hill slope. The sigmoidal curve slope is fitted using a default fitting curve to ascertain IC50 values.
# Table 2: Erk Phosphorylation assay. The value indicates an average value of at least two measurements.
# P450 3A4 = P450 3A4 (Homo sapiens (Human), UniProt P08684); assay: Cytochrome P450 isoenzyme inhibition assay (P450 3A4, midazolam); format: in vitro ADME; details: human liver microsomes, Midazolam as substrate; read-out: CYP3A4 inhibition IC50
# Chain of P450 3A4 (P08684 whole entry): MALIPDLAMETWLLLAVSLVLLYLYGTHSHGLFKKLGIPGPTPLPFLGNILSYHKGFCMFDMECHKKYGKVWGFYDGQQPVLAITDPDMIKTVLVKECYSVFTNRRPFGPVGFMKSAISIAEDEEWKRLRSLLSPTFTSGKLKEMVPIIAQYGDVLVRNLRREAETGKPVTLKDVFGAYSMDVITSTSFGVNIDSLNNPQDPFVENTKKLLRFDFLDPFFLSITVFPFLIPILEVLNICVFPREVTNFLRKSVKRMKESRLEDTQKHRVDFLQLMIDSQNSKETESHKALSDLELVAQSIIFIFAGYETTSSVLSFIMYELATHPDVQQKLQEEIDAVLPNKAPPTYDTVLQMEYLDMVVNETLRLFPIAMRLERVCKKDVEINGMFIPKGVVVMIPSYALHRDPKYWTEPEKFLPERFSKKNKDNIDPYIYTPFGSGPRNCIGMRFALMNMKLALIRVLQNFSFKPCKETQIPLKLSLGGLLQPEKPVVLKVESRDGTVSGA
# Experimental: For the following cytochrome P450 isoenzymes, these substrates and metabolic reactions are monitored: P450 3A4: hydroxylation of Midazolam (MDZ).
# The final incubation volume contains TRIS buffer (0.1 M), MgCl2 (5 mM), a certain concentration of human liver microsomes dependent on the P450 isoenzyme measured (P450 3A4: 0.1 mg/ml) and a certain concentration of the individual substrate for each isoenzyme (P450 3A4: Midazolam 5 μM).
# The effect of the test compound is determined at five different concentrations in duplicate (e.g. highest concentration 50 μM with subsequent serial 1:4 dilutions) or without test compound (high control). Following a short preincubation period, reactions are started with the cofactor (NADPH, 1 mM) and stopped by cooling the incubation down to 8° C. and subsequently by addition of one volume of ACN. An internal standard solution—usually the stable isotope of the formed metabolite—is added after quenching of incubations. Peak area analyte (=metabolite formed) and internal standard is determined by LC-MS/MS. The resulting peak area ratio analyte to internal standard in these incubations is compared to a control activity containing no test compound. Within each of the assay runs, the IC50 of a positive control inhibitor dependent on the P450 isoenzyme measured (P450 3A4: ketoconazole) is determined. The assay results are plotted against compound concentrations to calculated IC50 values (half maximal inhibitory concentrations) for inhibitory compounds utilizing Software IDBS E-WorkBook.
# Table 4: Inhibition of P450 isoenzyme 3A^4.
# CYP3A4 = CYP3A4 (Homo sapiens (Human), UniProt P08684); assay: Mechanism-based inhibition of CYP3A4 assay (MBI 3A4); format: in vitro ADME; details: human liver microsomes, midazolam substrate, hydroxy-midazolam formation after 30 min preincubation relative to 0 min; for inhibition at 30 min: human, probe midazolam 15 μM (hydroxy-midazolam formation), read-out: MBI inhibition % ctrl. [%] with MDZ
# Chain of CYP3A4 (P08684 whole entry): as above
# Experimental: Mechanism-Based Inhibition of CYP3A4 assay (MBI 3A4): The mechanism-based inhibition towards CYP3A4 is assayed in human liver microsomes with midazolam as substrate. The test compounds and water control (wells w/o test compound) are preincubated in presence of NADPH (1 mM) with human liver microsomes (0.2 mg/mL) at a concentration of 0, 5 and 25 μM for 0, 10 and 30 min. After preincubation, the incubate is diluted 1:10 (to 0.02 mg/mL) and the substrate midazolam (15 μM) is added for the main incubation (10 min). The main incubation is quenched with ACN and the formation of hydroxy-midazolam is quantified via LC/MS-MS. The formation of hydroxy-midazolam from the 30 min preincubation relative to the formation from the 0 min preincubation is used as a readout. Values of less than 100% mean that the substrate midazolam is metabolized to a lower extent upon 30 min preincubation compared to 0 min preincubation. In general, low effects upon 30 min preincubation are desired (corresponding to values close to 100%/not different to the values determined with water control).
# Table 5: Mechanism-based inhibition of P450 isoenzyme 3A4 with midazolam as substrate.
# human hepatocytes = assay: Metabolic stability in human hepatocytes; details: 1 μM test compound, 50% human serum, percentage of liver blood flow
# Experimental: The metabolic degradation of a test compound is performed with hepatocytes in suspension. After recovery from cryopreservation, human hepatocytes are diluted in Dulbecco's modified eagle medium (supplemented with 3.5 μg glucagon/500 mL, 2.5 mg insulin/500 mL, 3.75 mg hydrocortisone/500 mL, 50% human serum) to obtain a final cell density of 1.0×10^6 cells/mL. Following a preincubation in a cell culture incubator (37° C., 10% CO2), test compound dissolved in DMSO is mixed with the hepatocyte suspension, resulting in a final test compound concentration of 1 μM and a final DMSO concentration of 0.05%.
# The cell suspension is incubated at 37° C. (cell culture incubator, horizontal shaker) and samples are removed from the incubation after 0, 0.5, 1, 2, 4 and 6 hours. Samples are quenched with acetonitrile (containing internal standard) and pelleted by centrifugation. The supernatant is transferred to a deep-well plate and prepared for analysis of decline of parent compound by HPLC-MS/MS.
# The percentage of remaining test compound is calculated using the peak area ratio (test compound/internal standard) of each incubation time point relative to the time point 0 peak area ratio. The log-transformed data are plotted versus incubation time, and the absolute value of the slope obtained by linear regression analysis is used to estimate in vitro half-life (T1/2).
# CL_[sequence]_IN VIVO[mL/min/kg]=(CL_[sequence][μL/min/10^6cells]×hepatocellularity[10^6cells/g liver]×liver factor[g/kg body weight])/1000
# Hepatic in vivo blood clearance (CL) is predicted according to the well-stirred liver model considering an average liver blood flow (QH) of 20.7 mL/min/kg:
# CL[mL/min/kg]=CL_[sequence]_IN VIVO[mL/min/kg]×hepatic blood flow[mL/min/kg]/(CL_[sequence]_IN VIVO[mL/min/kg]+hepatic blood flow[mL/min/kg])
# Results are expressed as percentage of hepatic blood flow:
# QH[%]=CL[mL/min/kg]/hepatic blood flow[mL/min/kg])
# [2] = Homo sapiens, NCI-H358, NCI-H358 SOS2 KO cells
# Chain of SOS1 and KRAS G12C (Q07889 564-1049, stated change not applied): as the sequence (Q07889 564-1049, stated change not applied) above
SMILES,IC50 (SOS1 and KRAS G12C),IC50 (SOS1 and KRAS G12D),IC50 ([1]; NCI-H358 SOS2 KO cells),IC50 (P450 3A4),MBI inhibition % ctrl. [%] with MDZ (CYP3A4),Hepatic clearance - QH[%] in human hepatocytes (human hepatocytes),inhibition at 30 min (CYP3A4),"IC50 [1, 2]"
"C[C@@H](NC(=O)c1cc([C@H]2CC[C@H](N3CCC(F)C(O)C3)CC2)c2ncnn2c1)c1cccc(C(F)F)c1F (single isomer, unassigned) [trans-E61a]",39 nM,41 nM,391 nM,> 50000 nM,,40%,93%,
C[C@@H](NC(=O)c1cc(N2CCC(N3CC[C@@H](O)C3)CC2)c2ncnn2c1)c1cccc(C(F)F)c1F [Example E2],55 nM,46 nM,,> 50000 nM,,15%,95%,92 nM
C[C@@H](NC(=O)c1cc(N2CCC(N3C[C@H](O)C4(CC4)C3)CC2)c2ncnn2c1)c1cccc(C(F)F)c1F [Example E3],59 nM,50 nM,,> 50000 nM,,24%,94%,155 nM
C[C@@H](NC(=O)c1cc(N2CCC(N3CC[C@](C)(O)C3)CC2)c2ncnn2c1)c1cccc(C(F)F)c1F [Example E4],82 nM,70 nM,,> 50000 nM,,20%,99%,336 nM
C[C@@H](NC(=O)c1cc(N2CCC(N3CC[C@@](C)(O)C3)CC2)c2ncnn2c1)c1cccc(C(F)F)c1F [Example E5],65 nM,57 nM,,> 50000 nM,,16%,103%,324 nM
C[C@@H](NC(=O)c1cc(N2CCC(N(C)CC(C)(C)O)CC2)c2ncnn2c1)c1cccc(C(F)F)c1F [Example E7],50 nM,43 nM,,> 50000 nM,,31%,106%,246 nM

# Compounds with a lower IC50 (SOS1 and KRAS G12C), results first:
IC50 (SOS1 and KRAS G12C),IC50 (SOS1 and KRAS G12D),IC50 ([1]; NCI-H358 SOS2 KO cells),IC50 (P450 3A4),MBI inhibition % ctrl. [%] with MDZ (CYP3A4),Hepatic clearance - QH[%] in human hepatocytes (human hepatocytes),inhibition at 30 min (CYP3A4),"IC50 [1, 2]",SMILES
37 nM,36 nM,153 nM,> 50000 nM,94%,16%,,,"C[C@@H](NC(=O)c1cc(N2CCC(NC3COCC3O)CC2)c2ncnn2c1)c1cccc(C(F)(F)F)c1F (single isomer, unassigned) [Example trans-E42b]"
33 nM,35 nM,287 nM,> 50000 nM,,28%,91%,,"C[C@@H](NC(=O)c1cc(N2CCC(NC3CCCC3(C)O)CC2)c2ncnn2c1)c1cccc(C(F)(F)F)c1F (single isomer, unassigned) [Example trans-E53b]"
32 nM,32 nM,138 nM,> 50000 nM,101%,30%,,,"C[C@@H](NC(=O)c1cc([C@H]2CC[C@H](N3CCC(F)C(O)C3)CC2)c2ncnn2c1)c1cccc(C(F)F)c1F (single isomer, unassigned) [Example trans-E61b]"
36 nM,42 nM,169 nM,> 50000 nM,,19%,107%,,"C[C@@H](NC(=O)c1cc([C@H]2CC[C@H](N3CCC(F)C(O)C3)CC2)c2ncnn2c1)c1cccc(C(F)(F)F)c1F (single isomer, unassigned) [Example trans-E70b]"
33 nM,30 nM,,> 50000 nM,,17%,98%,118 nM,C[C@@H](NC(=O)c1cc(N2CCC(N3CCC[C@@H]3CO)CC2)c2ncnn2c1)c1cccc(C(F)F)c1F [Example E1]
36 nM,37 nM,,> 50000 nM,,16%,102%,247 nM,C[C@@H](NC(=O)c1cc(N2CCC(N3CCC[C@H]3CO)CC2)c2ncnn2c1)c1cccc(C(F)F)c1F [Example E6]

# — patent US20250313560A1, “Novel bicyclic benzylamido pyridine derivatives as SOS1 inhibitors” (Boehringer Ingelheim International GmbH, priority 2024, published 2025)
